Test results published in article PMC8587465, “Naturally Available Flavonoid Aglycones as Potential Antiviral Drug Candidates against SARS-CoV-2” (Molecules, 2021).
In brackets after ≈: the same amount, converted by molar mass. Like-named read-outs stand apart in the source and are kept apart here.

Tests used:
[1] = system: SARS-CoV-2 "NRC-03-nhCoV" virus; assay: In vitro anti-SARS-CoV-2 activity, IC50 by reduction of virus-induced cytopathic effect in Vero-E6 cells; assay type: cell-based; conditions: read-out: inhibitory concentration 50% (IC50) against NRC-03-nhCoV
[2] = Cytotoxicity (CC50) determination, crystal violet assay; assay type: cell-based; conditions: African green monkey
Description: To assess the half-maximal cytotoxic concentration (CC50), stock solutions of the compounds were prepared in 10% DMSO in ddH2O and diluted further to the working solutions with DMEM. The cytotoxic activity of the extracts was tested in VERO-E6 cells by using a crystal violet assay, as previously described with minor modifications. Briefly, the cells were seeded in 96 well-plates (100 µL/well at a density of 3 × 10^5 cells/mL) and incubated for 24 h at 37 °C in 5% CO2. Control cells were treated with 1% DMSO in DMEM (the concentration of DMSO in the highest concentration of the tested samples). After 24 h, the cells were treated with various concentrations of the compounds in triplicates. After 72 h, the supernatant was discarded, and the cell monolayers were fixed with 10% formaldehyde for 1 h at room temperature (RT). The fixed monolayers were, then, dried and stained with 50 µL of 0.1% crystal violet for 20 min on a bench rocker at RT. The monolayers were, then, washed and dried, and the crystal violet dye in each well was dissolved with 200 µL methanol for 20 min on a bench rocker at RT. […]
All experiments were performed in three biological repeats. […] The IC50 and CC50 curves represent the nonlinear fit of “normalize” of “transform” of the obtained data; their values were calculated using GraphPad prism as “best fit value”.

SARS-CoV-2 Mpro = conditions: stated in the abstract for the reference standard; method and reference not given; cited from earlier work
[3] = Severe acute respiratory syndrome coronavirus 2, Vero C1008, 72 h

Q: For `COc1ccc(-c2cc(=O)c3c(OC)c(OC)c(OC)c(OC)c3o2)cc1` [Compound 3, Tangeretin], which IC50 [1, 3] is on record?
A: 2.5 µg/mL (≈ 6.71 µM)

Q: With `COc1c(O)cc2oc(-c3ccc(O)cc3)cc(=O)c2c1O` [Compound 5, Hispidulin] as the compound, how does the CC50 at 72 h ([2]; Vero E6 cells, 72 h, crystal violet, read-out: half-maximal cytotoxic concentration (CC50)) read?
A: 14100 µg/mL (≈ 47100 µM)

Q: And the IC50 [1, 3]?
A: 883 µg/mL (≈ 2940 µM)

Q: With `CC(C)(C)OC(=O)Nc1cccn(C(CC2CC2)C(=O)NC(CC2CCNC2=O)C(=O)C(=O)NCc2ccccc2)c1=O` (stereo not shown) [KI] as the compound, how does the IC50 (SARS-CoV-2 Mpro) read?
A: 66.72 µg/mL (≈ 112 µM)

Q: Which IC50 [1, 3] does the source give for `COc1ccc(-c2cc(=O)c3c(O)c(OC)c(O)cc3o2)cc1` [Compound 2, Pectolinarigenin] here?
A: 12.4 µg/mL (≈ 39.5 µM)

Q: Which CC50 at 72 h [2] does the source give for `COc1ccc(-c2cc(=O)c3c(O)c(OC)c(OC)c(OC)c3o2)cc1` [Compound 4, Gardenin B] here?
A: 14100 µg/mL (≈ 39400 µM)

Q: What about the IC50 ([1]; Severe acute respiratory syndrome coronavirus 2, Vero C1008, Vero-E6 cells, 100 TCID50, 72 h, CPE reduction) of the same compound?
A: 128 µg/mL (≈ 357 µM)
